# In patent US6414138B1, “Process for producing mixtures rich in 1,6-GPS or 1,1-GPM” (Sudzucker Aktiengesellschaft, priority 1997, dated 2002):
# Assay: Solubility of 1,1-GPM and 1,6-GPS in water / aqueous suspension
# Assay type: physicochemical
# Settings: seed crystals mixed into concentrated aqueous solution of hydrogenated isomaltulose, about 50-65° C.
# Procedure: Since the solubility equilibrium is temperature-dependent, the concentration ratio of the two components can advantageously be preset. After the solubility equilibrium is adjusted, the 1,1-GPM and 1,6-GPS concentration in the products can be controlled by setting the rate for the temperature change.
# In another preferred embodiment of the invention, a suspension which is formed by the addition of, for example, crystalline hydrogenated isomaltulose in water, is heated to, for example, 85° C. to completely dissolve the solute, whereafter the cooling step to crystallize the solution is combined with a seeding step. The seeding step, however, is not essential. Advantageously, powdered hydrogenated isomaltulose in crystalline form or in the form of a suspension can be used. Most advantageously, the suspension is formed in water or in an organic solvent, such as isopropanol, and a food-compatible dispersing agent acting as a solvent can be added, if necessary. […]
# The two constituents of hydrogenated isomaltulose, i.e. 1,1-GPM and 1,6-GPS, have a different solubility in aqueous solutions (FIG. 4). […] The 1,1-GPM component, which crystallizes more readily, is concentrated in the solid fraction of the suspension, whereas the 1,6-GPS component, which crystallizes less readily, goes preferentially into solution. […]
row,solubility (in words),Compound
1,only slightly soluble,"OC[C@@H](O)[C@@H](O)[C@H](O)[C@H](O)CO[C@H]1O[C@H](CO)[C@@H](O)[C@H](O)[C@H]1O [1,1-GPM, 1-0-α-D-Glucopyranosyl-D-mannite]"
2,readily soluble,"OC[C@H](O)[C@@H](O)[C@H](O)[C@H](O)CO[C@H]1O[C@H](CO)[C@@H](O)[C@H](O)[C@H]1O [1,6-GPS, 6-0-α-D-Glucopyranosyl-D-sorbite]"
